Tests used:
Assay in all cases: relative viability (nuclei count vs DMSO), 5 days (fraction); higher = more cells survive
[1] = compound: CCn1c(-c2nonc2N)nc2c(C#CC(C)(C)O)ncc(OC[C@H]3CCCNC3)c21 + COc1cc2c(Oc3ccc(NC(=O)C4(C(=O)Nc5ccc(F)cc5)CC4)cc3F)ccnc2cc1OCCCN1CCOCC1 [Foretinib] (partner 0.25 µM)
Summary of the method: (§1)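 The day after seeding in 1536-well plates, lung cancer cell lines were treated by pin tool with a single drug, or with a fixed anchor-drug dose together with five library-drug doses (not always all listed) in √10 steps. After 5 days, a combined fix-and-stain solution (final 0.05% Triton X-100, 1% formaldehyde, 1 ug/ml Hoechst) was added. Nuclei counted on 4× images gave relative viability as treated counts over vehicle counts, reported as the median of duplicate plates.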

[2] = compound: CCn1c(-c2nonc2N)nc2c(C#CC(C)(C)O)ncc(OC[C@H]3CCCNC3)c21 + C[C@@H](Oc1cc(-c2cnn(C3CCNCC3)c2)cnc1N)c1c(Cl)ccc(F)c1Cl [Crizotinib] (partner 1 µM)
Summary of the method: as §1

BAM7 + Vorinostat = compound: CCOC1=CC=CC=C1N=NC2=C(NN(C2=O)C3=NC(=CS3)C4=CC=CC=C4)C [BAM7] + O=C(CCCCCCC(=O)Nc1ccccc1)NO [Vorinostat] (partner 1 µM)
Summary of the method: as §1

BAM7 + AZD7762 = compound: CCOC1=CC=CC=C1N=NC2=C(NN(C2=O)C3=NC(=CS3)C4=CC=CC=C4)C [BAM7] + NC(=O)Nc1cc(-c2cccc(F)c2)sc1C(=O)N[C@H]1CCCNC1 [AZD7762] (partner 0.2 µM)
Summary of the method: as §1

| Cell Line | relative viability ([1]; first compound 0.01 µM) | relative viability ([1]; first compound 0.03162 µM) | relative viability ([1]; first compound 0.1 µM) | relative viability ([1]; first compound 0.3162 µM) | relative viability ([1]; first compound 1 µM) | relative viability ([2]; first compound 0.01 µM) | relative viability ([2]; first compound 0.03162 µM) | relative viability ([2]; first compound 0.1 µM) | relative viability ([2]; first compound 0.3162 µM) | relative viability ([2]; first compound 1 µM) | relative viability (BAM7 + Vorinostat; first compound 0.5 µM) | relative viability (BAM7 + Vorinostat; first compound 5 µM) | relative viability (BAM7 + Vorinostat; first compound 15.81 µM) | relative viability (BAM7 + Vorinostat; first compound 50 µM) | relative viability (BAM7 + AZD7762; first compound 0.5 µM) | relative viability (BAM7 + AZD7762; first compound 5 µM) | relative viability (BAM7 + AZD7762; first compound 15.81 µM) | relative viability (BAM7 + AZD7762; first compound 50 µM) |
| --- | --- | --- | --- | --- | --- | --- | --- | --- | --- | --- | --- | --- | --- | --- | --- | --- | --- | --- |
| A549 | 0.92 | 1.08 | 0.886 | 0.843 | 0.845 | 0.665 | 0.706 | 0.718 | 0.666 | 0.63 | – | – | – | – | – | – | – | – |
| COR-L23 | 0.835 | 1.08 | 0.903 | 1.02 | 1 | 0.612 | 0.724 | 0.56 | 0.662 | 0.604 | 0.434 | 0.379 | 0.433 | 0.52 | – | – | – | – |
| COR-L 105 | 1.01 | 1 | 1.04 | 1.03 | 1.16 | 0.692 | 1.05 | 0.731 | 0.731 | 0.875 | 0.889 | 0.952 | 0.895 | 0.906 | – | – | – | – |
| Calu-6 | 0.85 | 0.86 | 0.866 | 0.824 | 0.942 | 0.758 | 0.814 | 0.868 | 0.756 | 0.786 | – | – | – | – | – | – | – | – |
| EBC-1 | 0.106 | 0.0912 | 0.0934 | 0.102 | 0.0999 | 0.161 | 0.194 | 0.223 | 0.159 | 0.197 | – | – | – | – | – | – | – | – |
| IA-LM | 0.955 | 1.02 | 1.09 | 0.946 | 0.923 | 0.824 | 0.601 | 0.862 | 0.703 | 0.323 | 0.874 | 1.03 | 0.389 | 0.553 | – | – | – | – |
| NCI-H520 | 0.743 | 0.902 | 0.704 | 0.524 | 0.392 | 0.732 | 1.02 | 0.616 | 0.644 | 0.452 | 0.801 | 0.866 | 0.702 | 0.718 | – | – | – | – |
| NCI-H522 | – | – | – | – | – | – | – | – | – | – | 0.911 | 0.851 | 0.963 | 0.977 | 0.748 | 0.967 | 0.851 | 0.851 |
| NCI-H661 | 1.01 | 1.06 | 1.06 | 0.935 | 1.06 | 1.03 | 0.984 | 1.08 | 0.992 | 0.989 | 0.82 | 0.843 | 0.784 | 0.774 | – | – | – | – |
| NCI-H1299 | 1.09 | 1.08 | 1.06 | 0.717 | 1.16 | 0.935 | 0.927 | 0.948 | 0.919 | 0.997 | – | – | – | – | – | – | – | – |
| NCI-H1395 | 0.945 | 0.922 | 0.945 | 0.871 | 0.818 | – | – | – | – | – | 0.662 | 0.678 | 0.645 | 0.939 | 0.395 | 0.407 | 0.394 | 0.421 |
| NCI-H1563 | 0.989 | 0.884 | 0.886 | 0.892 | 0.881 | 0.853 | 0.923 | 0.799 | 0.772 | 0.81 | – | – | – | – | – | – | – | – |
| NCI-H1623 | 0.855 | 0.849 | 0.793 | 0.882 | 0.676 | – | – | – | – | – | – | – | – | – | – | – | – | – |
| NCI-H1648 | – | – | – | – | – | – | – | – | – | – | 0.283 | 0.6 | 0.408 | 0.348 | 0.489 | 0.775 | 0.633 | 0.921 |
| NCI-H1650 | 1.07 | 1.01 | 1.3 | 0.933 | 1.02 | 0.964 | 1.06 | 0.924 | 0.971 | 1.07 | 0.605 | 0.449 | 0.428 | 0.571 | – | – | – | – |
| NCI-H1703 | 0.333 | 0.313 | 0.347 | 0.248 | 0.356 | 0.465 | 0.656 | 0.59 | 0.482 | 0.376 | – | – | – | – | 0.14 | 0.115 | 0.122 | 0.132 |
| NCI-H1792 | – | – | – | – | – | 0.961 | 0.948 | 0.95 | 0.891 | 0.78 | – | – | – | – | 0.681 | 0.65 | 0.605 | 0.633 |
| NCI-H1793 | 0.733 | 0.614 | 0.632 | 0.55 | 0.554 | – | – | – | – | – | 0.751 | 0.715 | 0.726 | 1.08 | 0.544 | 0.341 | 0.428 | 0.426 |
| NCI-H2009 | 1.22 | 1.21 | 1.31 | 1.22 | 1.22 | 0.941 | 1.03 | 1.09 | 1.02 | 1.07 | 0.67 | 0.755 | 0.706 | 0.693 | – | – | – | – |
| NCI-H2023 | 0.775 | 0.887 | 0.801 | 0.781 | 0.755 | 0.683 | 0.67 | 0.557 | 0.583 | 0.549 | 0.635 | 0.577 | 0.605 | 0.589 | – | – | – | – |
| NCI-H2228 | 0.762 | 0.985 | 0.767 | 0.555 | 0.872 | 0.552 | 0.56 | 0.476 | 0.378 | 0.33 | 0.448 | 0.586 | 0.552 | 0.59 | – | – | – | – |
| SK-LU-1 | 0.754 | 0.896 | 0.737 | 0.816 | 0.749 | 1.11 | 0.817 | 0.925 | 0.978 | 0.987 | 0.83 | 0.901 | 0.784 | 0.847 | – | – | – | – |
| SK-MES-1 | 0.908 | 0.876 | 1.02 | 0.819 | 0.828 | 0.989 | 0.982 | 0.963 | 0.909 | 0.982 | 1.04 | 1.06 | 1.05 | 1.04 | – | – | – | – |
| SW 1573 | 0.89 | 0.799 | 0.812 | 0.728 | 0.763 | 0.699 | 0.767 | 0.734 | 0.762 | 0.704 | 0.715 | 0.735 | 1.06 | 0.606 | – | – | – | – |

Reference: the supplement of paper PMC10307832
